# Source: patent US20090156577A1, “7-AMINO ALKYLIDENYL-HETEROCYCLIC QUINOLONES AND NAPHTHYRIDONES” (priority 2004, published 2009)
# Like-named read-outs stand apart in the source and are kept apart here.
# Tested on: pathogenic bacteria
# Test: MIC by microdilution broth method (NCCLS M7-A4), in vitro antibacterial activity
# Format: cell-based
# In short: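 Broth microdilution per NCCLS M7-A4: two-fold serial dilutions in cation-adjusted Mueller-Hinton broth, inoculum about 5×10^4 CFU/well. Trays incubated 16–20 h at 35 °C. MIC read by comparing growth against no-compound growth controls.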
# [1] = Staphylococcus aureus, Organism A: Staphylococcus aureus OC4172, read-out: MIC
# [2] = Streptococcus pneumoniae, ATCC49619, Organism E: Streptococcus pneumoniae ATCC 49619, read-out: MIC
# [3] = Streptococcus pneumoniae, Organism B: fluoroquinolone-resistant clinical isolate of Streptococcus pneumoniae (QRDR amino acid substitutions)
# [4] = Streptococcus pneumoniae, Organism C: fluoroquinolone-resistant clinical isolate of Streptococcus pneumoniae (QRDR amino acid substitutions)
# [5] = Streptococcus pneumoniae, Organism D: fluoroquinolone-resistant clinical isolate of Streptococcus pneumoniae (QRDR amino acid substitutions)
smiles,measurement,setting,value
"COc1c(N2CCC/C(=C(/F)CN)C2)c(F)cc2c(=O)c(C(=O)O)cn([C@@H]3C[C@@H]3F)c12 [Compound 406, (Z)-7-[3-(2-Amino-1-fluoro-ethylidene)-piperidin-1-yl]-6-fluoro-(1R,2S)-1-(2-fluoro-cyclopropyl)-8-methoxy-4-oxo-1,4-dihydro-quinoline-3-carboxylic acid]",MIC,[1],0.06 µg/mL
same,MIC,[2],0.5 µg/mL
same,MIC,[3],8 µg/mL
same,MIC,[4],8 µg/mL
same,MIC,[5],2 µg/mL
"O=C(O)C(F)(F)F.O=C(O)c1cn(C2CC2)c2nc(N3CCC(=C(F)CN4CCNCC4)CC3)c(F)cc2c1=O [Compound 294, 1-Cyclopropyl-6-fluoro-7-[4-(1-fluoro-2-piperazin-1-yl-ethylidene)-piperidin-1-yl]-4-oxo-1,4-dihydro-[1,8]naphthyridine-3-carboxylic Acid Trifluoroacetic Acid Salt]",MIC,[1],2 µg/mL
same,MIC,[2],8 µg/mL
same,MIC,[3],> 16 µg/mL
same,MIC,[4],> 16 µg/mL
same,MIC,[5],> 16 µg/mL
"NCC(Cl)=C1CCN(c2cc3c(cc2F)c(=O)c(C(=O)O)cn3C2CC2)CC1 [Compound 65, 7-[4-(2-Amino-1-chloro-ethylidene)-piperidin-1-yl]-1-1-cyclopropyl-6-fluoro-4-oxo-1,4-dihydro-quinoline-3-carboxylic acid]",MIC,[1],0.03 µg/mL
same,MIC,[2],0.12 µg/mL
same,MIC,[4],0.5 µg/mL
same,MIC,[5],1 µg/mL
"NC/C(F)=C1/CCCN(c2cc3c(cc2F)c(=O)c(C(=O)O)cn3C2CC2)CC1 [Compound 502, (E)-7-[4-(2-Amino-1-fluoro-ethylidene)-azepan-1-yl]-1-cyclopropyl-6-fluoro-4-oxo-1,4-dihydro-quinoline-3-carboxylic acid]",MIC,[1],0.5 µg/mL
same,MIC,[2],4 µg/mL
same,MIC,[3],16 µg/mL
same,MIC,[4],16 µg/mL
same,MIC,[5],> 16 µg/mL
"NC/C(F)=C1\CCCN(c2c(F)cc3c(=O)c(C(=O)O)cn(-c4nc(N)c(F)cc4F)c3c2Cl)C1 [Compound 411, (Z)-1-(6-Amino-3,5-difluoro-pyridin-2-yl)-7-[3-(2-amino-1-fluoro-ethylidene)-piperidin-1-yl]-8-chloro-6-fluoro-4-oxo-1,4-dihydro-quinoline-3-carboxylic acid]",MIC,[1],0.06 µg/mL
same,MIC,[2],1 µg/mL
same,MIC,[3],> 16 µg/mL
same,MIC,[4],> 16 µg/mL
same,MIC,[5],16 µg/mL
"NC/C=C1/CCCN(c2nc3c(cc2F)c(=O)c(C(=O)O)cn3C2CC2)C1 [Compound 375, (Z)-7-[3-(2-Amino-ethylidene)-piperidin-1-yl]-1-cyclopropyl-6-fluoro-4-oxo-1,4-dihydro-[1,8]naphthyridine-3-carboxylic acid]",MIC,[1],0.12 µg/mL
same,MIC,[2],8 µg/mL
same,MIC,[3],> 16 µg/mL
same,MIC,[4],> 16 µg/mL
same,MIC,[5],> 16 µg/mL
"C=C(C)CC(CN)=C1CCN(c2c(F)cc3c(=O)c(C(=O)O)cn(C4CC4)c3c2OC)CC1 [Compound 202, 7-[4-(1-Aminomethyl-3-methyl-but-3-enylidene)-piperidin-1-yl]-1-cyclopropyl-6-fluoro-8-methoxy-4-oxo-1,4-dihydro-quinoline-3-carboxylic acid]",MIC,[1],0.5 µg/mL
same,MIC,[2],2 µg/mL
same,MIC,[3],16 µg/mL
same,MIC,[4],16 µg/mL
same,MIC,[5],8 µg/mL
"CC(C)NCC(F)=C1CCN(c2cc3c(cc2F)c(=O)c(C(=O)O)cn3C2CC2)CC1 [Compound 249, 1-Cyclopropyl-6-fluoro-7-[4-(1-fluoro-2-isopropylamino-ethylidene)-piperidin-1-yl]-4-oxo-1,4-dihydro-quinoline-3-carboxylic acid]",MIC,[1],1 µg/mL
same,MIC,[2],2 µg/mL
same,MIC,[4],16 µg/mL
same,MIC,[5],4 µg/mL
"NCC(F)=C1CCN(c2nc3c(cc2F)c(=O)c(C(=O)O)cn3C2CC2)CC1 [Compound 1, 7-[4-(2-Amino-1-fluoro-ethylidene)-piperidin-1-yl]-1-cyclopropyl-6-fluoro-4-oxo-1,4-dihydro-[1,8]naphthyridine-3-carboxylic acid]",MIC,[1],0.03 µg/mL
same,MIC,[2],0.12 µg/mL
same,MIC,[3],2 µg/mL
same,MIC,[4],0.5 µg/mL
same,MIC,[5],1 µg/mL
